Experiment [1] concerns the target T1, Aβ oligomers (Homo sapiens, UniProt P05067).
T1 construct: Ser^26 depsipeptide iso-Aβ (1–42) was used; made in house; host or cells: chemical peptide synthesis (no expression host)
As to the kind of experiment: Sandwich ELISA binding of biotin-tagged conjugates to Aβ. An excerpt: To study the role of certain structure elements in the binding affinity, a set of new foldamer sequences were designed (Figure 2) and ligated to lysine-dendron scaffolds having a focal symmetry. This template with biotin affinity tag can be easily synthesized by solid phase peptide synthesis and immobilized on a streptavidin coated support such as the surface of the ELISA plate. Structural changes included fine-tuning the side-chain properties (2b–2d), changing the position of ionic residues (2e) and introducing bulky bicyclic side-chains (2f–2i).
The binding affinities of 2b–2i to Aβ oligomers were tested in ITC experiments. In such cases where the fitting failed due to low heat response or poor solubility, sandwich ELISA experiments were performed to enable the comparison of all conjugates (see Supporting Information for details).
The apparent dissociation constants for the complete set of new conjugates were calculated individually from the data of the ELISA experiments as well. Comparing the KD values of 2f–2i in this case, the replacement of ACHC to ABHC had only a minor effect on the Aβ binding. The cyclic β-amino acid ACHC not only provides the helical conformation of such a short foldamer but also protects the ionic residues from solvent upon binding due to its hydrophobicity.
(In general: In an ELISA, binding on a coated surface is turned into a signal by an enzyme label.)

For experiment [2], the target named is T1, Aβ oligomers. As to the kind of experiment: Isothermal titration calorimetry (ITC) binding to Aβ oligomers. The following applies: KD ITC, Table 1, PBS pH 7.4, 285 K, Aβ 100 µM in cell, ligand 250 µM in syringe, two independent site model. On the procedure:
The binding affinities of 2b–2i to Aβ oligomers were tested in ITC experiments.
In this work, Ser^26 depsipeptide iso-Aβ (1–42) was used, which was synthesized and purified as described previously. The lyophilized iso-Aβ (1–42) was dissolved in MilliQ water to a concentration of 1 mg mL^−1, sonicated for 3 min and the pH was set to 7.0 to initiate an O to N acyl migration, whereby the native sequence can be readily formed. The sample was incubated at room temperature for 10 min. Then the pH was set to 11 and the sample was kept at room temperature for additional 2 h. After the incubation, the Aβ stock solution was aliquoted and stored at −20 °C until use. To obtain Aβ oligomers, the 1 mg mL^−1 aliquot was diluted to a final concentration of 50 μM with 26.67 mM PBS and the pH was set to 7.4 with 1 M HCl. The sample was incubated at 37 °C for 3 h.
Isothermal calorimetric titrations were performed with a Microcal VP-ITC microcalorimeter in pH 7.4 PBS buffer solution. In individual titrations, 10 µL portions of the ligand containing solution were repeatedly injected from the computer-controlled 300-µL microsyringe at intervals of 300 s into the Aβ oligomer solution prepared in the same buffer as the ligand. All measurements were carried out at 285 K. The Aβ concentration in the cell was 100 µM and the total ligand concentration was 250 µM in the syringe and the titration was stopped when the precipitation of the Aβ aggregates became excessive. Control experiments were performed by injecting the ligand into a cell containing buffer with no target, and the heats of dilution were subtracted from those measured in the presence of Aβ. The experimental data were fitted to the two independent site binding models by using a nonlinear least-squares procedure, with ΔHb, ΔHb’, Kd, Kd’ ([…]), n and n’ (number of binding sites for monomer), as adjustable parameters.

What is called Kd is the equilibrium constant for the complex coming apart. Low readings indicate a tighter complex, high ones a looser complex.

T1 sequence (P05067 672-713 limits assumed): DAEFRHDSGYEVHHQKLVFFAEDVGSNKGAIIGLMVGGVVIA

Regarding `N=C(N)NCCC[C@@H](CC(=O)N[C@H]1CCCC[C@@H]1C(=O)N[C@H]1CCCC[C@@H]1C(=O)N[C@@H](CC(=O)O)CC(=O)N[C@H]1CCCC[C@@H]1C(=O)NCC(=O)NCC(=O)N[C@@H](CSC1CC(=O)N(CCC(=O)NCCCC[C@H](NC(=O)CCN2C(=O)CC(SC[C@H](NC(=O)CNC(=O)CNC(=O)[C@H]3CCCC[C@@H]3NC(=O)C[C@H](CC(=O)O)NC(=O)[C@H]3CCCC[C@@H]3NC(=O)[C@H]3CCCC[C@@H]3NC(=O)C[C@H](CCCNC(=N)N)NC(=O)[C@H]3CCCC[C@@H]3N)C(N)=O)C2=O)C(=O)NCCCC[C@H](NC(=O)[C@H](CCCCNC(=O)CCN2C(=O)CC(SC[C@H](NC(=O)CNC(=O)CNC(=O)[C@H]3CCCC[C@@H]3NC(=O)C[C@H](CC(=O)O)NC(=O)[C@H]3CCCC[C@@H]3NC(=O)[C@H]3CCCC[C@@H]3NC(=O)C[C@H](CCCNC(=N)N)NC(=O)[C@H]3CCCC[C@@H]3N)C(N)=O)C2=O)NC(=O)CCN2C(=O)CC(SC[C@H](NC(=O)CNC(=O)CNC(=O)[C@H]3CCCC[C@@H]3NC(=O)C[C@H](CC(=O)O)NC(=O)[C@H]3CCCC[C@@H]3NC(=O)[C@H]3CCCC[C@@H]3NC(=O)C[C@H](CCCNC(=N)N)NC(=O)[C@H]3CCCC[C@@H]3N)C(N)=O)C2=O)C(=O)N[C@@H](CCCCNC(=O)CCCC[C@@H]2SC[C@@H]3NC(=O)N[C@@H]32)C(N)=O)C1=O)C(N)=O)NC(=O)[C@H]1CCCC[C@@H]1N` (some centres unmarked) [Compound 2a], the Kd on Aβ oligomers [1] stood at 0.95 ± 0.06 nM; on Aβ oligomers [2] (first binding stage), 27.6 ± 7.74 nM; at Aβ oligomers [2] (second binding stage), 240 ± 68.7 nM.

As for `NCCCC[C@@H](CC(=O)N[C@H]1CCCC[C@@H]1C(=O)N[C@H]1CCCC[C@@H]1C(=O)N[C@@H](CC(=O)O)CC(=O)N[C@H]1CCCC[C@@H]1C(=O)NCC(=O)NCC(=O)N[C@@H](CSC1CC(=O)N(CCC(=O)NCCCC[C@H](NC(=O)CCN2C(=O)CC(SC[C@H](NC(=O)CNC(=O)CNC(=O)[C@H]3CCCC[C@@H]3NC(=O)C[C@H](CC(=O)O)NC(=O)[C@H]3CCCC[C@@H]3NC(=O)[C@H]3CCCC[C@@H]3NC(=O)C[C@H](CCCCN)NC(=O)[C@H]3CCCC[C@@H]3N)C(N)=O)C2=O)C(=O)NCCCC[C@H](NC(=O)[C@H](CCCCNC(=O)CCN2C(=O)CC(SC[C@H](NC(=O)CNC(=O)CNC(=O)[C@H]3CCCC[C@@H]3NC(=O)C[C@H](CC(=O)O)NC(=O)[C@H]3CCCC[C@@H]3NC(=O)[C@H]3CCCC[C@@H]3NC(=O)C[C@H](CCCCN)NC(=O)[C@H]3CCCC[C@@H]3N)C(N)=O)C2=O)NC(=O)CCN2C(=O)CC(SC[C@H](NC(=O)CNC(=O)CNC(=O)[C@H]3CCCC[C@@H]3NC(=O)C[C@H](CC(=O)O)NC(=O)[C@H]3CCCC[C@@H]3NC(=O)[C@H]3CCCC[C@@H]3NC(=O)C[C@H](CCCCN)NC(=O)[C@H]3CCCC[C@@H]3N)C(N)=O)C2=O)C(=O)N[C@@H](CCCCNC(=O)CCCC[C@@H]2SC[C@@H]3NC(=O)N[C@@H]32)C(N)=O)C1=O)C(N)=O)NC(=O)[C@H]1CCCC[C@@H]1N` (some centres unmarked) [Compound 2b], the results for the Kd on Aβ oligomers [1], at Aβ oligomers [2] (first binding stage) and at Aβ oligomers [2] (second binding stage) were 5.36 ± 1.42 nM, 53.2 ± 38.7 nM and 373 ± 104 nM, respectively.

`N=C(N)NCCC[C@@H](CC(=O)N[C@H]1CCCC[C@@H]1C(=O)N[C@H]1CCCC[C@@H]1C(=O)N[C@@H](CCC(=O)O)CC(=O)N[C@H]1CCCC[C@@H]1C(=O)NCC(=O)NCC(=O)N[C@@H](CSC1CC(=O)N(CCC(=O)NCCCC[C@H](NC(=O)CCN2C(=O)CC(SC[C@H](NC(=O)CNC(=O)CNC(=O)[C@H]3CCCC[C@@H]3NC(=O)C[C@H](CCC(=O)O)NC(=O)[C@H]3CCCC[C@@H]3NC(=O)[C@H]3CCCC[C@@H]3NC(=O)C[C@H](CCCNC(=N)N)NC(=O)[C@H]3CCCC[C@@H]3N)C(N)=O)C2=O)C(=O)NCCCC[C@H](NC(=O)[C@H](CCCCNC(=O)CCN2C(=O)CC(SC[C@H](NC(=O)CNC(=O)CNC(=O)[C@H]3CCCC[C@@H]3NC(=O)C[C@H](CCC(=O)O)NC(=O)[C@H]3CCCC[C@@H]3NC(=O)[C@H]3CCCC[C@@H]3NC(=O)C[C@H](CCCNC(=N)N)NC(=O)[C@H]3CCCC[C@@H]3N)C(N)=O)C2=O)NC(=O)CCN2C(=O)CC(SC[C@H](NC(=O)CNC(=O)CNC(=O)[C@H]3CCCC[C@@H]3NC(=O)C[C@H](CCC(=O)O)NC(=O)[C@H]3CCCC[C@@H]3NC(=O)[C@H]3CCCC[C@@H]3NC(=O)C[C@H](CCCNC(=N)N)NC(=O)[C@H]3CCCC[C@@H]3N)C(N)=O)C2=O)C(=O)N[C@@H](CCCCNC(=O)CCCC[C@@H]2SC[C@@H]3NC(=O)N[C@@H]32)C(N)=O)C1=O)C(N)=O)NC(=O)[C@H]1CCCC[C@@H]1N` (some centres unmarked) [Compound 2c]: the Kd on Aβ oligomers [1] was 1.92 ± 0.21 nM; on Aβ oligomers [2] (first binding stage), 2.53 ± 1.81 nM; at Aβ oligomers [2] (second binding stage), 175 ± 46.4 nM.

As to `N=C(N)NCCC[C@H](NC(=O)[C@H]1CCCC[C@@H]1N)C(=O)N[C@H]1CCCC[C@@H]1C(=O)N[C@H]1CCCC[C@@H]1C(=O)N[C@@H](CC(=O)O)C(=O)N[C@H]1CCCC[C@@H]1C(=O)NCC(=O)NCC(=O)N[C@@H](CSC1CC(=O)N(CCC(=O)NCCCC[C@H](NC(=O)CCN2C(=O)CC(SC[C@H](NC(=O)CNC(=O)CNC(=O)[C@H]3CCCC[C@@H]3NC(=O)[C@H](CC(=O)O)NC(=O)[C@H]3CCCC[C@@H]3NC(=O)[C@H]3CCCC[C@@H]3NC(=O)[C@H](CCCNC(=N)N)NC(=O)[C@H]3CCCC[C@@H]3N)C(N)=O)C2=O)C(=O)NCCCC[C@H](NC(=O)[C@H](CCCCNC(=O)CCN2C(=O)CC(SC[C@H](NC(=O)CNC(=O)CNC(=O)[C@H]3CCCC[C@@H]3NC(=O)[C@H](CC(=O)O)NC(=O)[C@H]3CCCC[C@@H]3NC(=O)[C@H]3CCCC[C@@H]3NC(=O)[C@H](CCCNC(=N)N)NC(=O)[C@H]3CCCC[C@@H]3N)C(N)=O)C2=O)NC(=O)CCN2C(=O)CC(SC[C@H](NC(=O)CNC(=O)CNC(=O)[C@H]3CCCC[C@@H]3NC(=O)[C@H](CC(=O)O)NC(=O)[C@H]3CCCC[C@@H]3NC(=O)[C@H]3CCCC[C@@H]3NC(=O)[C@H](CCCNC(=N)N)NC(=O)[C@H]3CCCC[C@@H]3N)C(N)=O)C2=O)C(=O)N[C@@H](CCCCNC(=O)CCCC[C@@H]2SC[C@@H]3NC(=O)N[C@@H]32)C(N)=O)C1=O)C(N)=O` (some centres unmarked) [Compound 2d], at Aβ oligomers [1], the Kd turned out to be 7.7 ± 3.06 nM.

`N=C(N)NCCC[C@@H](CC(=O)N[C@H]1CCCC[C@@H]1C(=O)N[C@@H](CC(=O)O)CC(=O)N[C@H]1CCCC[C@@H]1C(=O)NCC(=O)NCC(=O)N[C@@H](CSC1CC(=O)N(CCC(=O)NCCCC[C@H](NC(=O)CCN2C(=O)CC(SC[C@H](NC(=O)CNC(=O)CNC(=O)[C@H]3CCCC[C@@H]3NC(=O)C[C@H](CC(=O)O)NC(=O)[C@H]3CCCC[C@@H]3NC(=O)C[C@H](CCCNC(=N)N)NC(=O)[C@H]3CCCC[C@@H]3NC(=O)[C@H]3CCCC[C@@H]3N)C(N)=O)C2=O)C(=O)NCCCC[C@H](NC(=O)[C@H](CCCCNC(=O)CCN2C(=O)CC(SC[C@H](NC(=O)CNC(=O)CNC(=O)[C@H]3CCCC[C@@H]3NC(=O)C[C@H](CC(=O)O)NC(=O)[C@H]3CCCC[C@@H]3NC(=O)C[C@H](CCCNC(=N)N)NC(=O)[C@H]3CCCC[C@@H]3NC(=O)[C@H]3CCCC[C@@H]3N)C(N)=O)C2=O)NC(=O)CCN2C(=O)CC(SC[C@H](NC(=O)CNC(=O)CNC(=O)[C@H]3CCCC[C@@H]3NC(=O)C[C@H](CC(=O)O)NC(=O)[C@H]3CCCC[C@@H]3NC(=O)C[C@H](CCCNC(=N)N)NC(=O)[C@H]3CCCC[C@@H]3NC(=O)[C@H]3CCCC[C@@H]3N)C(N)=O)C2=O)C(=O)N[C@@H](CCCCNC(=O)CCCC[C@@H]2SC[C@@H]3NC(=O)N[C@@H]32)C(N)=O)C1=O)C(N)=O)NC(=O)[C@H]1CCCC[C@@H]1NC(=O)[C@H]1CCCC[C@@H]1N` (some centres unmarked) [Compound 2e] showed a Kd on Aβ oligomers [1] of 2.71 ± 0.21 nM.

These data come from publication PMC6222781, “Structural Optimization of Foldamer-Dendrimer Conjugates as Multivalent Agents against the Toxic Effects of Amyloid Beta Oligomers” (Molecules : A Journal of Synthetic Chemistry and Natural …, 2018).
